From US10537602B2, “Feed for fish” (NUTRECO IP ASSETS B.V., priority 2006, dated 2020)

Assays:
Type in all cases: in vivo
[1] = test system: Atlantic salmon (Salmo salar); experiment: Example 2 feeding study: growth and feed conversion of fish on feed with carvacrol or Salvia lavandulifolia extract; conditions: for Feed conversion ratio / Specific growth rate / Final weight: 82 days, Salvia = Salvia lavandulifolia extract; for Final weight: initial weight about 199 g, sea water 12° C., triplicate
Procedure: (§1) Growth rate is expressed as percentage increase in body mass from day to day (Specific Growth Rate, SGR). This is calculated as:
(§2) [formula] FinalW=final weight InitW=initial weight Days=time from measuring initial weight to final weight
(§3) The common term to describe this is Feed Conversion Ratio (FCR) defined as: FCR=Amount of feed fed (kg)/Net growth of the fish (kg)
(§4) Control and comparison feeds were prepared as in Example 1. Salvia lavandulifolia salvia extract (CAS 8016-65-7) was used.
(§5) The feed was fed to Atlantic salmon (Salmo salar) weighing 199 g (±2.4 g) at the onset of the study. The fish were stocked in tanks (1 m×1 m). There were 35 fish in each tank. Sea water temperature was 12° C. The fish were fed for 82 days. The study was run in triplicate.

[2] = test system: Atlantic salmon (Salmo salar); experiment: Example 1 feeding study: growth and feed conversion of fish on feed with carvacrol or Salvia officinalis extract; conditions: for Final weight / Feed conversion ratio / Specific growth rate: 67 days, triplicate, Salvia = Salvia officinalis extract; for Final weight: initial weight about 170 g, sea water 11.8° C.
Procedure: as §1, §2, §3
A control feed was prepared from fish meal (407.4 g), soybean meal (55.8 g), corn gluten (196.1 g), wheat (88.0 g), fish oil (247.3 g), mineral and vitamin premixes (3.8 g), yttrium premix (1.0 g, used to measure lipid digestibility as discussed below) and astaxanthin preparation (0.6 g). Pellets were extruded using the process explained above and coated with the fish oil.
Test feeds containing 0.1 wt % and 0.2 wt % carvacrol formulation (containing 50 wt % carvacrol and 50 wt % silica carrier) were prepared. The amount of active substance was 500 and 1000 mg per kg feed, respectively. In the comparison feeds, the amount of wheat was reduced to 87.0 g and 86.0 g respectively. The carvacrol formulation was added with the other microingredients to the mixer before preconditioning.
Test feeds containing 0.1 wt % and 0.2 wt % formulation of Salvia officinalis salvia extract (containing 50 wt % salvia extract and 50 wt % silica carrier) were prepared in a similar way.
The feed was fed to Atlantic salmon (Salmo salar) weighing 169 g (±3 g) at the onset of the study. The fish was stocked in tanks (1 m×1 m). There were 30 fish in each tank. Sea water temperature was 11.8° C. (±0.5° C.). The fish were fed for 67 days. The study was run in triplicate.

[3] = test system: Atlantic salmon (Salmo salar); experiment: Example 2 lipid digestibility (Apparent Digestibility Coefficient, yttrium marker); conditions: for ADC (%) lipid: Example 2, Salvia = Salvia lavandulifolia extract
Procedure: (§6) To achieve the above objects, additives that can increase the digestibility of fat and or protein are of value. This can be measured by the “Apparent Digestibility Coefficient”, calculated as: […]
(§7) Yttrium is added to the diet for the purpose of calculating ADC, but is otherwise not a necessary component of fish feed.
as §4, §5

[4] = test system: Atlantic salmon (Salmo salar); experiment: Example 3 apparent digestibility of protein, C16:0, saturated fatty acids and total lipid; conditions: for ADC protein (%) / ADC C16:0 (%) / ADC saturated fatty acids (%) / ADC total lipid (%): added as 100% oil, 96 days, one tank, Salvia lavandulifolia; for ADC protein (%): 8.9° C.
Procedure: as §6, §7
Control feed was prepared from South-American fish meal (526.2 g), soybean meal (40.0 g), corn gluten (79.0 g), wheat (120.4 g), South-American fish oil (230.3 g), mineral and vitamin premixes (2.5 g), yttrium premix (1.0 g), and astaxanthin preparation (0.6 g). Pellets were extruded using the process explained above and coated with the fish oil.
Test feeds were prepared containing carvacrol and/or salvia extract (Salvia lavandulifolia). Carvacrol and/or salvia extract were each added as 100% oil. Two different inclusion levels of separate carvacrol and salvia extract (0.5 g/kg and 1.0 g/kg) were tested.
Two test feeds were prepared with a combination of carvacrol and salvia extract. The inclusion levels were 1.0 g carvacrol and 0.2 g/kg salvia extract, and 0.5 g/kg carvacrol and 0.5 g/kg salvia extract, respectively. The carvacrol oil and/or salvia extract was mixed with the fish oil and coated onto the surface of the pellets by vacuum coating after drying of the pellets.
Pellet size was 3 mm for all feeds.
The feed was fed to Atlantic salmon (Salmo salar) weighing 156 g (±13 g) at the onset of the study. The fish was stocked in tanks holding 100 L water. There were 25 fish in each tank. Sea water temperature was 8.9° C.±0.2° C. The fish were fed for 96 days. The study was run with four control groups and one tank each for the different inclusion levels of carvacrol, salvia extract or combined carvacrol and salvia.
Apparent digestibility was determined for protein, the saturated fatty acid C16:0, the sum of all saturated fatty acids and the total lipid.

[5] = with increasing amounts in feed, Example 2, in words
[6] = with increasing amounts in feed, Example 1, in words
[7] = with increasing amounts in feed, Example 3, in words

Cc1ccc(C(C)C)cc1O [Carvacrol, 2-methyl-5(1-methylethyl)-phenol]
Feed conversion ratio ([1]; 0.05 wt % additive in feed): 0.68 | Specific growth rate ([1]; 0.05 wt % additive in feed): 1.16 | Final weight ([1]; 0.05 wt % additive in feed): 512 g | Feed conversion ratio ([1]; 0.1 wt % additive in feed): 0.70 | Specific growth rate ([1]; 0.1 wt % additive in feed): 1.13 | Final weight ([1]; 0.1 wt % additive in feed): 503 g | feed utilisation [1, 5]: improved | fish growth [1, 5]: increased | Final weight ([2]; 0.05 wt % additive in feed): 339 ± 18 g | Feed conversion ratio ([2]; 0.05 wt % additive in feed): 0.91 ± 0.05 | Specific growth rate ([2]; 0.05 wt % additive in feed): 1.04 ± 0.05 | Final weight ([2]; 0.1 wt % additive in feed): 354 ± 6 g | Feed conversion ratio ([2]; 0.1 wt % additive in feed): 0.87 ± 0.03 | Specific growth rate ([2]; 0.1 wt % additive in feed): 1.09 ± 0.03 | feed utilisation [2, 6]: improved | fish growth [2, 6]: increased | ADC (%) lipid ([3]; 0.05 wt % additive in feed): 95.78% | ADC (%) lipid ([3]; 0.1 wt % additive in feed): 97.65% | lipid digestibility [3, 5]: increased | ADC protein (%) ([4]; 0.05 wt % additive in feed): 88.8% | ADC C16:0 (%) ([4]; 0.05 wt % additive in feed): 75.3% | ADC saturated fatty acids (%) ([4]; 0.05 wt % additive in feed): 75.5% | ADC total lipid (%) ([4]; 0.05 wt % additive in feed): 89.2% | ADC protein (%) ([4]; 0.10 wt % additive in feed): 87.6% | ADC C16:0 (%) ([4]; 0.10 wt % additive in feed): 74.0% | ADC saturated fatty acids (%) ([4]; 0.10 wt % additive in feed): 74.4% | ADC total lipid (%) ([4]; 0.10 wt % additive in feed): 89.2% | lipid digestibility [4, 7]: increased | protein digestibility [4, 7]: increased
